Reference: patent publication US5635483A, “Tumor inhibiting tetrapeptide bearing modified phenethyl amides” (priority 1992, dated 1997)
Values joined by “and” are separate entries in the source; they are usually repeats but may differ in a detail not shown here. Equal entries are not always repeated.

Experiments:
Assay type in all cases: cell-based
SK-MEL-3 = assay: NCI human tumor cell line screen, melanoma SK-MEL-3; settings: for GI-50 / TGI: Human cancer cell; for LC-50: Human cancer cells
Description: (§1) Current research in the control of cancer in the United States is coordinated by the National Cancer Institute (NCI). To determine whether a substance has anti-cancer properties, the NCI has established a systematic protocol. This protocol, which involves the testing of a substance against a standard cell line panel containing 60 human tumor cell lines, has been verified and has been accepted in scientific circles. The protocol, and the established statistical means for analyzing the results obtained by the standardized testing are fully described in the literature. See: Body, Dr. Michael R., Principles & Practice of Oncology, PPO Updates, Volume 3, Number 10, October 1989, for an in depth description of the testing protocol; and Paull, K. D., "Display and Analysis of Patterns of Differential Activity of Drugs Against Human Tumor Cell Lines; Development of Mean Graph and COMPARE Algorithm", Journal of the National Cancer Institute Reports, Vol. 81, No. 14, Page 1088, Jul. 14, 1989 for a description of the methods of statistical analysis. Both of these references are incorporated herein by this reference thereto.
(§2) The extraordinary inhibition of cell growth shown by the tetrapeptide 6a-k against six major types of human cancer and against the murine P388 lymphocytic leukemia cell line has been presented in Table 1-2, below.

NCI-460 = assay: NCI human tumor cell line screen, Lung-NSC NCI-460; settings: for GI-50 / TGI: Human cancer cell; for LC-50: Human cancer cells
Description: as §1, with “This protocol, which involves the testing of a substance against a standard cell line panel containing 60 human tumor cell lines, has been verified and has been accepted in scientific circles.” left out

KM20L2 = assay: NCI human tumor cell line screen, colon KM20L2; settings: for GI-50 / TGI: Human cancer cell; for LC-50: Human cancer cells
Description: as §1, with “This protocol, which involves the testing of a substance against a standard cell line panel containing 60 human tumor cell lines, has been verified and has been accepted in scientific circles.” left out

A498 = assay: NCI human tumor cell line screen, renal A498; settings: for GI-50 / TGI: Human cancer cell; for LC-50: Human cancer cells
Description: as §1, with “This protocol, which involves the testing of a substance against a standard cell line panel containing 60 human tumor cell lines, has been verified and has been accepted in scientific circles.” left out

OVCAR-3 = assay: NCI human tumor cell line screen, ovarian OVCAR-3; settings: for GI-50 / TGI: Human cancer cell; for LC-50: Human cancer cells
Description: as §1, with “This protocol, which involves the testing of a substance against a standard cell line panel containing 60 human tumor cell lines, has been verified and has been accepted in scientific circles.” left out

SF-295 = assay: NCI human tumor cell line screen, CNS SF-295; settings: for GI-50 / TGI: Human cancer cell; for LC-50: Human cancer cells
Description: as §1, §2

P-388 = assay: Murine P388 lymphocytic leukemia cell growth inhibition; settings: Mouse leukemia cell P-388
Description: as §2

Substance	GI-50 (SK-MEL-3)	TGI (SK-MEL-3)	LC-50 (SK-MEL-3)	GI-50 (NCI-460)	TGI (NCI-460)	LC-50 (NCI-460)	GI-50 (KM20L2)	TGI (KM20L2)	LC-50 (KM20L2)	GI-50 (A498)	TGI (A498)	LC-50 (A498)	GI-50 (OVCAR-3)	TGI (OVCAR-3)	LC-50 (OVCAR-3)	GI-50 (SF-295)	TGI (SF-295)	LC-50 (SF-295)	ED-50 (P-388)
[2S-[1[1R*(R*),2S*],2R*[1S*,2S*, 3(1S*, 2R*)]]]-N,N-dimethyl-L-valyl-N-[2-methoxy-4-[2-[1-methoxy-2-methyl-3-oxo-3-[[1-phenyl-1-hydroxy-2-propyl]amino]propyl]-1-pyrrolidinyl-1-(methylpropyl)-4-oxobutyl]-N-methyl-L-valine amide [Peptide 6k]	0.00058 µg/mL	> 10 ng/mL	> 0.01 µg/mL	0.0003 µg/mL	1 ng/mL	> 0.01 µg/mL	0.00029 µg/mL	1.3 ng/mL	> 0.01 µg/mL	0.00075 µg/mL	> 10 ng/mL	> 0.01 µg/mL	0.00017 µg/mL	0.53 ng/mL	> 0.01 µg/mL	0.0006 µg/mL	> 10 ng/mL	> 0.01 µg/mL	0.000434 µg/mL
[2S-[1[1R*(R*),2S*],2R*[1S*,2S*]]]-N,N-dimethyl-L-valyl-N-[2-methoxy-4-[2-[1-methoxy-2-methyl-3-oxo-3-[[2-(4-chlor-phenyl)-ethyl]amino]propyl]-1-pyrrolidinyl-1-(methylpropyl)-4-oxo butyl]-N-methyl-L-valineamide [Peptide 6c]	< 0.000001 µg/mL	> 10 ng/mL	> 0.01 µg/mL	< 0.000001 µg/mL	1.1 ng/mL	> 0.01 µg/mL	< 0.000001 µg/mL	1.1 ng/mL	> 0.01 µg/mL	0.00062 µg/mL	> 10 ng/mL	> 0.01 µg/mL	< 0.000001 µg/mL	< 0.001 ng/mL	> 0.01 µg/mL	0.000010 µg/mL	1.9 ng/mL	> 0.01 µg/mL	0.00553 µg/mL
[2S-[1 [1R*(R*),2S*],2R*[1S*,2S*]]]-N,N-dimethyl-L-valyl-N-[2-methoxy-4-[2-[1-methoxy-2-methyl-3-oxo-3-[[2-(4-bromo-phenyl)-ethyl]amino]propyl]-1-pyrrolidinyl-l-(methylpropyl)-4-oxo butyl]-N-methyl-L-valineamide [Peptide 6e]	0.00038 µg/mL	> 10 ng/mL	> 0.01 µg/mL	0.00027 µg/mL	1.2 ng/mL	> 0.01 µg/mL	0.00032 µg/mL	4.1 ng/mL	> 0.01 µg/mL	0.00046 µg/mL	> 10 ng/mL	> 0.01 µg/mL	0.00015 µg/mL	0.5 ng/mL	0.0094 µg/mL	0.00043 µg/mL	> 10 ng/mL	> 0.01 µg/mL	0.00515 µg/mL
[2S-[1[1R*(R*),2S*],2R*[1S*,2S*,3(1S*, 2S*)]]]-N,N-dimethyl-L-valyl-N-[2-methoxy-4-[2-[1-methoxy-2- methyl-3-oxo-3-[[1-phenyl-1-hydroxy-2-propyl]methylamino]propyl]- 1-pyrrolidinyl-1-(methylpropyl)-4-oxobutyl]-N-methyl-L-valineamide valineamide [Peptide 6h]	–	> 10 ng/mL	> 0.01 µg/mL	0.00006 µg/mL	0.11 ng/mL	> 0.01 µg/mL	–	0.52 ng/mL	> 0.01 µg/mL	–	> 10 ng/mL and 9.7 ng/mL	> 0.01 µg/mL	–	–	> 0.01 µg/mL	0.00031 µg/mL and 0.00034 µg/mL	> 10 ng/mL	> 0.01 µg/mL	–
[2S-[1[1R*(R*),2S*],2R*[1S*,2S*]]]-N,N-dimethyl-L-valyl-N-[2-methoxy-4-[2-[1-methoxy-2-methyl-3-oxo-3-[[2-(4-nitro-phenyl)-ethyl]amino]propyl]-1-pyrrolidinyl-1-(methylpropyl)-4-oxo butyl]-N-methyl-L-valineamide [Peptide 6b]	0.00012 µg/mL	1.3 ng/mL	> 0.01 µg/mL	0.00028 µg/mL	1.2 ng/mL	> 0.01 µg/mL	0.0003 µg/mL	1.3 ng/mL	> 0.01 µg/mL	0.00064 µg/mL	> 10 ng/mL	> 0.01 µg/mL	0.00024 µg/mL	0.65 ng/mL	> 0.01 µg/mL	0.00035 µg/mL	> 10 ng/mL	> 0.01 µg/mL	0.0459 µg/mL
[2S-[1[1R*(R*),2S],2R*[1S*,2S*]]]-N,N-dimethyl-L-valyl-N-[2-methoxy-4-[2-[1-methoxy-2-methyl-3-oxo-3-[[2-(3,4-dimethoxy-phenyl)-ethyl]amino]propyl]-1- pyrrolidinyl-1-(methylpropyl)-4-oxobutyl]-N-methyl-L-valineamide [Peptide 6a]	0.000018 µg/mL	0.058 ng/mL	> 0.0001 µg/mL	0.000031 µg/mL	0.094 ng/mL	> 0.0001 µg/mL	0.000025 µg/mL	0.061 ng/mL	> 0.0001 µg/mL	0.000016 µg/mL	> 0.1 ng/mL	> 0.0001 µg/mL	0.000007 µg/mL	0.061 ng/mL	> 0.0001 µg/mL	0.000029 µg/mL	0.083 ng/mL	> 0.0001 µg/mL	0.0035 µg/mL
[2S-[1 [1R*(R*),2S*],2R*[1S*, 2S*]]]-N,N-dimethyl-L-valyl-N-[2-methoxy-4-[2-[1-methoxy-2-methyl-3-oxo-3- [[2-(4-chlor-phenyl)-etthyl]amino]propyl]-1-pyrrolidinyl-1-(methylpropyl)-4-oxo butyl]-N-methyl-L-valineamide [Peptide 6d]	0.000044 µg/mL	> 10 ng/mL	> 0.0001 µg/mL	0.000025 µg/mL	0.14 ng/mL	> 0.0001 µg/mL	0.00033 µg/mL	2.9 ng/mL	> 0.0001 µg/mL	0.000059 µg/mL	2.8 ng/mL	> 0.0001 µg/mL	0.000016 µg/mL	0.05 ng/mL	0.00096 µg/mL	0.000046 µg/mL	> 10 ng/mL	> 0.0001 µg/mL	0.00372 µg/mL
[2S-[1[1R*(R*),2S*],2R*[1S*,2S*]]]-N,N-dimethyl-L-valyl-N-[2-methoxy-4-[2- [1-methoxy-2-methyl-3-oxo-3-[[2-(3-chlor-phenyl)-ethyl]amino]propyl]-1-pyrrolidinyl-1-(methylpropyl)-4-oxo butyl]-N-methyl-L-valineamide [Peptide 6f]	< 0.000001 µg/mL	> 10 ng/mL	> 0.01 µg/mL	< 0.000001 µg/mL	0.1 ng/mL	> 0.01 µg/mL	0.0000007 µg/mL	1.7 ng/mL	> 0.01 µg/mL	< 0.000001 µg/mL	1.7 ng/mL	> 0.01 µg/mL	< 0.000001 µg/mL	< 0.001 ng/mL	0.00076 µg/mL	0.000028 µg/mL	> 10 ng/mL	> 0.01 µg/mL	0.00225 µg/mL
